Our source for the IC50 values is patent publication US20230031406A1, “COMPOUNDS AND COMPOSITIONS FOR TREATING CONDITIONS ASSOCIATED WITH NLRP ACTIVITY” (Novartis AG, priority 2018, published 2023).

The subject of the test is PMA-differentiated THP-1 cells. Nature of the test: IL-1β production in PMA-differentiated THP-1 cells stimulated with gramicidin (hTHP-1 assay containing 2% fetal bovine serum; Procedures 1 and 2). The class given is cell-based, human. Put shortly:
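IL-1β release from PMA-differentiated THP-1 macrophage-like cells was triggered by 5 μM gramicidin for 2 h after 1 h compound exposure, then measured by HTRF.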

[1] abbreviates: Homo sapiens, THP-1, Table B2, 2% fetal bovine serum, numeric bounds, read-out: hTHP-1 IC50.
The mark [2] stands for this setting: Table B2, 2% fetal bovine serum, class symbols, read-out: hTHP-1 IC50.
Setting [3] is: Homo sapiens, THP-1, Table B3, hTHP-1 assay, 2% fetal bovine serum, class symbols, read-out: IC50.
Setting [4] is: Table B3, hTHP-1 assay, 2% fetal bovine serum, class symbols, read-out: IC50.
Where [5] appears, read: Homo sapiens, THP-1, Table B3, hTHP-1 assay, 2% fetal bovine serum, numeric values, read-out: IC50.
The mark [6] stands for this setting: Homo sapiens, THP-1, Table B2, 2% fetal bovine serum, class symbols, read-out: hTHP-1 IC50.

Where two headings read alike, the source gives them in different places. A value given as a limit tells only on which side of the number the result lay.

On to `Cc1cn(C(C)C)nc1S(N)(=O)=NC(=O)Nc1c2c(nc3c1CCC3)CCC2` (single isomer, unassigned) [Compound 687a, (S) or (R)-N′-((1,2,3,5,6,7-hexahydrodicyclopenta [b,e]pyridin-8-yl)carbamoyl)-1-isopropyl-4-methyl-1H-pyrazole-3-sulfonimidamide], for which, under setting [1], the IC50 is above 30 µM.
For the molecule `Cc1c(C(F)(F)F)nc2c(c1NC(=O)N=S(N)(=O)c1cnc(C(C)(C)O)s1)CCC2C` (centres unmarked) [Compound 608, N′-((3,7-dimethyl-2-(trifluoromethyl)-6,7-dihydro-5H-cyclopenta[b]pyridin-4-yl)carbamoyl)-2-(2-hydroxypropan-2-yl)thiazole-5-sulfonimidamide], the half-maximal inhibitory concentration (IC50) under setting [2] is 1 to 5 µM.
Turning to `CC(C)(O)c1ccc(S(N)(=O)=NC(=O)Nc2c3c(nc4c2CCC4)CCC3)cn1` (centres unmarked) [Compound 156, N′-((1,2,3,5,6,7-hexahydrodicyclopenta[b,e]pyridin-8-yl)carbamoyl)-6-(2-hydroxypropan-2-yl)pyridine-3-sulfonimidamide], the IC50 (Homo sapiens, THP-1, Table B1, 2% fetal bovine serum, numeric bounds, read-out: Average IC50 of compounds in hTHP-1 assay: hTHP-1 IC50) was above 30 µM.
Consider `CC(C)(O)c1sc(S(N)(=O)=NC(=O)Nc2c3c(nc4c2CCC4(C)C)CCC3)nc1CO` (single isomer, unassigned) [Compound 642b, (R) or (S)-N′-((3,3-dimethyl-1,2,3,5,6,7-hexahydrodicyclopenta [b,e]pyridin-8-yl)carbamoyl)-4-(hydroxymethyl)-5-(2-hydroxypropan-2-yl)thiazole-2-sulfonimidamide], for which the IC50 under setting [2] lay in the range of 0.04 to 0.2 µM.
As for `NS(=O)(=NC(=O)Nc1c2c(nc(C(F)(F)F)c1C1CC1)CCC2)c1nn(C(F)F)cc1F` (centres unmarked) [Compound 984a], for the setting “Table B3, hTHP-1 assay, 2% fetal bovine serum, class symbols, listed as Compound 984a, read-out: IC50”, the IC50 was in the range of 5 to 30 µM.
Consider `CCn1cc(F)c(S(N)(=O)=NC(=O)Nc2c3c(nc4c2CC[C@H]4C)CCC3)n1` (stereo partly drawn) [Example 602, 1-Ethyl-4-fuoro-N′-(((R)-3-methyl-1,2,3,5,6,7-hexahydrodicyclopenta[b,e]pyridin-8-yl)carbamoyl)-1H-pyrazole-3-sulfonimidamide], for which, under setting [3], the half-inhibitory concentration (IC50) lay in the range of 0.008 to 0.04 µM.
The same measure, in the same setting: to `CC1(C)CCc2c1nc1c(c2NC(=O)N=[S@](N)(=O)c2cc([C@@](C)(O)CO)cs2)CCC1` [Example 654, (S)-4-((R)-1,2-dihydroxypropan-2-yl)-N′-((3,3-dimethyl-1,2,3,5,6,7-hexahydrodicyclopenta[b,e]pyridin-8-yl)carbamoyl) thiophene-2-sulfonimidamide] belongs 5 to 30 µM.
In the case of `CCc1c(C(F)(F)F)nc2c(c1NC(=O)N=S(N)(=O)c1nn(C(F)F)cc1F)CCC2` (single isomer, unassigned) [Example 709, (R) or (S)-1-(difluoromethyl)-N′-((3-ethyl-2-(trifluoromethyl)-6,7-dihydro-5H-cyclopenta[b]pyridin-4-yl)carbamoyl)-4-fluoro-1H-pyrazole-3-sulfonimidamide], the IC50 under setting [4] lay in the range of 1 to 5 µM.
Regarding `Cc1c(C2(C)CC2)nc2c(c1NC(=O)N=S(N)(=O)c1cnc(C(C)(O)CO)s1)CCC2` (centres unmarked) [Compound 707], the IC50 under setting [1] is above 30 µM.
As to `Cc1c(CC(F)(F)F)nc2c(c1NC(=O)N=S(N)(=O)c1nn(C(F)F)cc1F)CCC2` (single isomer, unassigned) [Example 724, (S) or (R)-1-(difluoromethyl)-4-fluoro-N′-((3-methyl-2-(2,2,2-trifluoroethyl)-6,7-dihydro-5H-cyclopenta[b]pyridin-4-yl)carbamoyl)-1H-pyrazole-3-sulfonimidamide], under setting [5], the IC50 was above 30 µM.
As to `CC(C)n1cc(F)c(S(N)(=O)=NC(=O)Nc2c3c(nc(C(F)(F)F)c2C2CC2)CCC3)n1` (centres unmarked) [Compound 1104, N′-((3-cyclopropyl-2-(trifluoromethyl)-6,7-dihydro-5H-cyclopenta[b]pyridin-4-yl)carbamoyl)-4-fluoro-1-isopropyl-1H-pyrazole-3-sulfonimidamide], the half-inhibitory concentration (IC50) (Homo sapiens, THP-1, read-out: hTHP-1 IC50 in 2% FBS, hTHP-1 assay containing 2% fetal bovine serum, Table B5) was 0.2 to 1 µM.
For `CCn1ncc(F)c1S(N)(=O)=NC(=O)Nc1c(C)c(C(F)(F)F)nc2c1CCC2` (centres unmarked) [compound 754, 1-Ethyl-4-fluoro-N′-((3-methyl-2-(trifluoromethyl)-6,7-dihydro-5H-cyclopenta[b]pyridin-4-yl)carbamoyl)-1H-pyrazole-5-sulfonimidamide], the IC50 (Homo sapiens, THP-1, Table B4, 2% fetal bovine serum, class symbols, read-out: hTHP-1 IC50) lay in the range of 1 to 5 µM.
Consider `CCn1ccc([S@](N)(=O)=NC(=O)Nc2c3c(nc(C4CC4)c2C2CC2)CCC3)n1` [Compound 726b], for which, under setting [6], the half-maximal inhibitory concentration (IC50) fell in the range of 0.2 to 1 µM.
Consider `NS(=O)(=NC(=O)Nc1c2c(nc3c1CCC31CC1)CCC2)c1ccn(CCO)n1` (single isomer, unassigned) [Example 647, (R) or (S)-1-(2-hydroxyethyl)-N′-((1′,5′,6′,7′-tetrahydro-2′H-spiro[cyclopropane-1,3′-dicyclopenta[b,e]pyridin]-8′-yl)carbamoyl)-1H-pyrazole-3-sulfonimidamide], for which the IC50 under setting [4] is 0.2 to 1 µM.
With `CC(C)c1nc2c(cc1NC(=O)N=S(N)(=O)c1cnc(C(C)(C)O)s1)CCC2` (single isomer, unassigned) [Example 702, (S) or (R)-2-(2-Hydroxypropan-2-yl)-N′-((2-isopropyl-6,7-dihydro-5H-cyclopenta[b]pyridin-3-yl)carbamoyl)thiazole-5-sulfonimidamide], under setting [5], the IC50 is above 30 µM.
With `Cc1c(C(F)(F)F)nc2c(c1NC(=O)N=S(N)(=O)c1cnn(C(F)F)c1)CCC2` (centres unmarked) [Compound 617, 1-(Difluoromethyl)-N′-((3-methyl-2-(trifluoromethyl)-6,7-dihydro-5H-cyclopenta[b]pyridin-4-yl)carbamoyl)-1H-pyrazole-4-sulfonimidamide], the IC50 under setting [6] was 5 to 30 µM.
In the case of `CC1(C)CCc2c1nc1c(c2NC(=O)N=S(N)(=O)c2cc([C@@](C)(O)CO)cs2)CCC1` (stereo partly drawn) [Example 624, 4-((R)-1,2-dihydroxypropan-2-yl)-N′-((3,3-dimethyl-1,2,3,5,6,7-hexahydrodicyclopenta[b,e]pyridin-8-yl)carbamoyl)thiophene-2-sulfonimidamide], under setting [3], the IC50 lay in the range of 0.2 to 1 µM.
As to `C[C@@H]1CCc2c1nc1c(c2NC(=O)N=S(N)(=O)c2nn(C(F)F)cc2F)CCC1` (single isomer, unassigned) [Example 680, (S) or (R)-1-(difluoromethyl)-4-fluoro-N′-(((R)-3-methyl-1,2,3,5,6,7-hexahydrodicyclopenta[b,e]pyridin-8-yl)carbamoyl)-1H-pyrazole-3-sulfonimidamide], under setting [4], the IC50 was in the range of 5 to 30 µM.
As for `CCn1cc(F)c(S(N)(=O)=NC(=O)Nc2c3c(nc4c2CCC4)CCC3)n1` (single isomer, unassigned) [Example 762, (S) or (R)-1-ethyl-4-fluoro-N′-((1,2,3,5,6,7-hexahydrodicyclopenta[b,e]pyridin-8-yl)carbamoyl)-1H-pyrazole-3-sulfonimidamide], the IC50 (Table B4, 2% fetal bovine serum, class symbols, read-out: hTHP-1 IC50) was 5 to 30 µM.
For the molecule `CC(C)(O)c1csc(S(N)(=O)=NC(=O)Nc2c3c(nc(C4CC4)c2C2CC2)CCC3)c1` (centres unmarked) [Compound 670, N′-((2,3-dicyclopropyl-6,7-dihydro-5H-cyclopenta[b]pyridin-4-yl)carbamoyl)-4-(2-hydroxypropan-2-yl)thiophene-2-sulfonimidamide], the IC50 under setting [6] was in the range of 0.2 to 1 µM.
As to `CC1(C)CCc2c1nc1c(c2NC(=O)N=[S@@](N)(=O)c2cc([C@](C)(O)CO)cs2)CCC1` [Example 651, (R)-4-((S)-1,2-dihydroxypropan-2-yl)-N′-((3,3-dimethyl-1,2,3,5,6,7-hexahydrodicyclopenta[b,e]pyridin-8-yl)carbamoyl) thiophene-2-sulfonimidamide], the IC50 under setting [3] was in the range of 0.04 to 0.2 µM.
`CC(C)(O)c1sc(S(N)(=O)=NC(=O)Nc2c3c(nc4c2CCC4)CCC3)cc1Cl` (single isomer, unassigned) [Compound 688b, (S) or (R)-4-Chloro-N′-((1,2,3,5,6,7-hexahydrodicyclopenta [b,e]pyridin-8-yl)carbamoyl)-5-(2-hydroxypropan-2-yl)thiophene-2-sulfonimidamide]: the IC50 under setting [2] lay in the range of 5 to 30 µM.
`CC1CCc2c1nc1c(c2NC(=O)N=S(N)(=O)c2sc(C(C)(C)O)nc2CO)CCC1` (single isomer, unassigned) [Compound 168a, (S,R/S) or (R,R/S)-4-(hydroxymethyl)-2-(2-hydroxypropan-2-yl)-N′-((3-methyl-1,2,3,5,6,7-hexahydro-dicyclopenta[b,e]pyridin-8-yl)carbamoyl)thiazole-5-sulfonimidamide]: under “Table B1, 2% fetal bovine serum, class symbols, read-out: Average IC50 of compounds in hTHP-1 assay: hTHP-1 IC50”, the IC50 was 5 to 30 µM.
`CC1(C)CCc2c1nc1c(c2NC(=O)N=[S@](N)(=O)c2cc([C@](C)(O)CO)cs2)CCC1` [Example 652, (S)-4-((S)-1,2-dihydroxypropan-2-yl)-N′-((3,3-dimethyl-1,2,3,5,6,7-hexahydrodicyclopenta[b,e]pyridin-8-yl)carbamoyl) thiophene-2-sulfonimidamide]: the IC50 under setting [3] fell in the range of 5 to 30 µM.
Take `C[C@@H]1CCc2c1nc1c(c2NC(=O)N=S(N)(=O)c2sc(CN(C)C)cc2F)CCC1` (stereo partly drawn) [Compound 636c, 5-((Dimethylamino)methyl)-3-fluoro-N′-(((R)-3-methyl-1,2,3,5,6,7-hexahydrodicyclopenta[b,e]pyridin-8-yl)carbamoyl)thiophene-2-sulfonimidamide]: the half-maximal inhibitory concentration (IC50) under setting [6] lay within 0.2 to 1 µM.
For `CC(C)(O)c1cc(F)c([S@@](N)(=O)=NC(=O)Nc2cc(CC(F)(F)F)nc3c2CCC3)s1` [Compound 602a], under setting [1], the half-maximal inhibitory concentration (IC50) was above 30 µM.
